From patent US20240270762A1, “PENICILLIN-BINDING PROTEIN INHIBITORS” (priority 2021, published 2024)
Converted amounts (≈) assume the structure as drawn.

What was measured:
[1] = biological target: T1, PBP3 from Acinetobacter baumannii (ATCC 19606) (Acinetobacter baumannii, UniProt A0ABX6CK25); experiment: Bocillin-FL fluorescence polarization competition binding, A. baumannii PBP3; details: fluorescence polarization competition binding assay using Bocillin-FL; read-out: A. baumannii PBP3 Potency
T1 sequence (A0ABX6CK25 64-610): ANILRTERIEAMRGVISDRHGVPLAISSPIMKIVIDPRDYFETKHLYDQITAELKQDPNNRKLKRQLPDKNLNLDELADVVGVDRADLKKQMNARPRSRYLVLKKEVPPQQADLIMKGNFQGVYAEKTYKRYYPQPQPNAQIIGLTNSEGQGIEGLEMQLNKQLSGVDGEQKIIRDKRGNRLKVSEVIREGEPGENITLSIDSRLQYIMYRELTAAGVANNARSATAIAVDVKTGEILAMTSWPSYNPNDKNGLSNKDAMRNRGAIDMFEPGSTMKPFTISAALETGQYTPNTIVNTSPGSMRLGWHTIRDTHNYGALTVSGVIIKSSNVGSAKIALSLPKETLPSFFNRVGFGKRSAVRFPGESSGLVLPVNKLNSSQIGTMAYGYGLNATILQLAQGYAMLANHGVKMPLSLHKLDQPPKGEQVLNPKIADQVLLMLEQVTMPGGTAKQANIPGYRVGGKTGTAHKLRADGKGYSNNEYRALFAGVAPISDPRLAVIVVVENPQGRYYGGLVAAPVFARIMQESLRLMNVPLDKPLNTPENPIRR
From the text: (§1) To determine the ability of boronic acid-based test PBP inhibitors to bind Penicillin Binding Proteins (PBPs), Bocillin-FL (fluorescently-labeled penicillin V; ThermoFisher Scientific) was used in a fluorescence polarization (FP) competition binding assay to assess inhibitor binding to PBP3 from Escherichia coli (K-12), PBP3 from Pseudomonas aeruginosa (PAO1), PBP1a and PBP3 from Acinetobacter baumannii (ATCC 19606), and PBP2 from Neisseria gonorrhoeae (FA19). PBPs were cloned and purified as described previously (E. coli PBP3, King, D. T, et al., ACS Infectious Diseases 2015, 1, 175-184; P. aeruginosa PBP3, Han et. al., PNAS 2010, 107 (51), 22002-22007; A. baumannii PBPs, Penwell et. al., Antimicrob. Agents Chemother. 2015, 59 (3), 1680-1689; N. gonorrhoeae PBP2, Singh et. al., J. Biol. Chem. 2019, 294 (38), 14020-14032). To establish assay conditions for competition binding, enzyme titration/saturation binding experiments were initially performed. Bocillin-FL was prepared at 0.2 μM in a buffer comprised of 50 mM Hepes (pH 8.0), 300 mM NaCl and 10% (v/v) glycerol for reactions with E. coli, P. aeruginosa and N. gonorrhoeae PBPs, and 25 mM Tris (pH 8.0), 200 mM NaCl, 10% (v/v) glycerol and 0.005% (v/v) Tween 20 for reactions with A. baumannii PBPs. Saturation binding was performed by mixing 40 μl of PBP solutions ranging in concentrations from 0-24 μM with 40 μl of the 0.2 μM Bocillin-FL solution, in individual wells of a black 384-well microplate. FP was measured immediately upon mixing (Excitation, 490 nm; Emission, 520 nm; g-factor, 0.96), using a Cytation3 (BioTek) microplate reader and measured continuously for up to 120 minutes. The FP response stabilized after 15 minutes for P. aeruginosa and A. baumannii PBP3, 30 minutes for E. coli PBP3 and A. baumannii PBP1a, and less than 1 minute for N. gonorrhoeae PBP2. […] The competition binding assay (80 μl final volume) was validated using beta-lactams and PBPs at final concentrations of: 1.5 μM for E. coli PBP3; 0.75 μM for P. aeruginosa PBP3; 1 μM for A. baumannii PBP1a; 0.2 μM for A. baumannii PBP3; and 0.25 μM for N. gonorrhoeae PBP2. Bocillin-FL was at 0.1 μM (0.05 μM with A. baumannii PBP1a) and beta-lactam concentrations ranged from 0-1,000 μM. E. coli PBP3 was incubated with increasing concentrations of ampicillin in a black 384-well microplate (Corning) for 30 minutes. P. aeruginosa PBP3 was incubated for 15 minutes with aztreonam, whereas A. baumannii PBP1a and PBP3 were incubated for 15 minutes with meropenem, and then Bocillin-FL was added followed immediately by the FP measurement for up to 60 minutes. […] The beta-lactam potency was reported as the concentration of beta-lactam required to reduce the amount of PBP bound-Bocillin-FL by 50% (EC50). […] The EC50 of aztreonam was determined to be <0.5 μM for P. aeruginosa PBP3. […] Binding assays for boronic acid PBP inhibitors were performed in an identical fashion for the respective PBPs.

[2] = biological target: T2, PBP3 from Pseudomonas aeruginosa (PAO1) (Pseudomonas aeruginosa, UniProt G3XD46); experiment: Bocillin-FL fluorescence polarization competition binding, P. aeruginosa PBP3; details: for IC50: Binding affinity to P. aeruginosa PBP3, fluorescence polarization competition binding assay using Bocillin-FL, read-out: P. aeruginosa PBP3 Potency
T2 construct: made in house
T2 sequence (G3XD46 whole entry): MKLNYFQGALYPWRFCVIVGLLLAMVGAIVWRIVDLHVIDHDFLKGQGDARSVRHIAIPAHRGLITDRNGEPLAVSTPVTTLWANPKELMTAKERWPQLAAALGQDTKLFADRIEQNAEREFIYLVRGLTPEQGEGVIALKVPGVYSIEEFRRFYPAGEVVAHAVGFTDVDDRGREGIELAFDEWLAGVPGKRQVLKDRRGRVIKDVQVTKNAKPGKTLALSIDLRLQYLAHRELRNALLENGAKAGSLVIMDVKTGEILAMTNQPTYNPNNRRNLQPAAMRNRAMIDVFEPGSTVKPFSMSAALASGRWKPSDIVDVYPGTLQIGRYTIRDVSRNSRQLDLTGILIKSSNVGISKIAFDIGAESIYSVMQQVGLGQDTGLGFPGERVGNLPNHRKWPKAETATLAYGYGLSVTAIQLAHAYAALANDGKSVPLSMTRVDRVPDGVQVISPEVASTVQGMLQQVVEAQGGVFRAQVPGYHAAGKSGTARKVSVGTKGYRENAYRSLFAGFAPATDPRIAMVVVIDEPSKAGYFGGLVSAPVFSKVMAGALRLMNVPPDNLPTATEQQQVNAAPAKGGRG
From the text: as §1

P. aeruginosa ATCC 35151 = experiment: microbe, parasite or virus in culture; format: cell-based; details: Pseudomonas aeruginosa, ATCC35151, read-out: Minimum inhibitory concentration, P. aeruginosa ATCC 35151
P. aeruginosa CDC-0090 = experiment: microbe, parasite or virus in culture; format: cell-based; details: Pseudomonas aeruginosa, CDC0090, read-out: Minimum inhibitory concentration, P. aeruginosa CDC-0090
P. aeruginosa ATCC 27853 = experiment: microbe, parasite or virus in culture; format: cell-based; details: Pseudomonas aeruginosa, ATCC27853, read-out: Minimum inhibitory concentration, P. aeruginosa ATCC 27853
A. baumannii CDC-0045 = experiment: microbe, parasite or virus in culture; format: cell-based; details: Acinetobacter baumannii, CDC0045, read-out: MIC, A. baumannii CDC-0045
[3] = system: B. thailandensis ATCC 700388; experiment: microbe, parasite or virus in culture; format: cell-based; details: Burkholderia thailandensis, ATCC700388, read-out: Minimum inhibitory concentration (MIC), B. thailandensis ATCC 700388
[4] = system: P. aeruginosa (ΔmexAB-oprM); experiment: Broth microdilution MIC in iron-depleted CAMHB (IDM); format: cell-based; details: Pseudomonas aeruginosa; iron-depleted CAMHB (IDM); […]; read-out: Minimum inhibitory concentration, P. aeruginosa ΔmexAB-oprM
P. aeruginosa CDC-0054 = experiment: microbe, parasite or virus in culture; format: cell-based; details: Pseudomonas aeruginosa, CDC0054, read-out: Minimum inhibitory concentration, P. aeruginosa CDC-0054
P. aeruginosa CDC-0095 = experiment: microbe, parasite or virus in culture; format: cell-based; details: Pseudomonas aeruginosa, CDC0095, read-out: Minimum inhibitory concentration, P. aeruginosa CDC-0095
A. baumannii ATCC 17978 = experiment: microbe, parasite or virus in culture; format: cell-based; details: Acinetobacter baumannii, ATCC17978, read-out: MIC, A. baumannii ATCC 17978
P. aeruginosa CDC-0110 = experiment: microbe, parasite or virus in culture; format: cell-based; details: Pseudomonas aeruginosa, CDC0110, read-out: Minimum inhibitory concentration, P. aeruginosa CDC-0110
A. baumannii 1258916 = experiment: microbe, parasite or virus in culture; format: cell-based, Acinetobacter baumannii; details: Acinetobacter baumannii, 1258916, read-out: MIC, A. baumannii 1258916
[5] = system: B. humptydooensis ATCC BAA-2767; experiment: microbe, parasite or virus in culture; format: cell-based; details: Burkholderia humptydooensis, ATCCBAA2767, read-out: Minimum inhibitory concentration (MIC), B. humptydooensis ATCC BAA-2767
A. baumannii ATCC 19606 = experiment: microbe, parasite or virus in culture; format: cell-based; details: Acinetobacter baumannii, ATCC19606, read-out: MIC, A. baumannii ATCC 19606
A. baumannii CDC-0033 = experiment: microbe, parasite or virus in culture; format: cell-based; details: Acinetobacter baumannii, CDC0033, read-out: MIC, A. baumannii CDC-0033
A. baumannii CDC-0036 = experiment: microbe, parasite or virus in culture; format: cell-based; details: Acinetobacter baumannii, CDC0036, read-out: MIC, A. baumannii CDC-0036

`O=C(O)c1c(F)ccc2c1OB(O)[C@@H](NC(=O)C(NC(=O)N1CCN(C3CCN(C(=O)c4cc[nH]c(=O)c4)CC3)C1=O)c1cc(F)c(O)c(O)c1Cl)C2` (stereo partly drawn) [Example 465, (3R)-3-(2-(2-chloro-5-fluoro-3,4-dihydroxyphenyl)-2-(2-oxo-3-(1-(2-oxo-1,2-dihydropyridine-4-carbonyl)piperidin-4-yl)imidazolidine-1-carboxamido)acetamido)-7-fluoro-2-hydroxy-3,4-dihydro-2H-benzo[e][1,2]oxaborinine-8-carboxylic acid] showed an IC50 [1] of under 10 µM and an IC50 [2] of under 10 µM.
`O=C(O)c1c(F)ccc2c1OB(O)[C@@H](NC(=O)[C@@H](NC(=O)N1CCN(Cc3ccc(O)c(O)c3Cl)C(=O)C1=O)c1ccc(P(=O)(O)O)c(F)c1F)C2` [Example 165, (R)-3-((S)-2-(4-(2-chloro-3,4-dihydroxybenzyl)-2,3-dioxopiperazine-1-carboxamido)-2-(2,3-difluoro-4-phosphonophenyl)acetamido)-7-fluoro-2-hydroxy-3,4-dihydro-2H-benzo[e][1,2]oxaborinine-8-carboxylic acid] showed an MIC (P. aeruginosa ATCC 35151) of under 1 µg/mL, an MIC (P. aeruginosa CDC-0090) of 2 to 4 µg/mL (≈ 2.59 to 5.19 µM) and an IC50 [1] of under 10 µM. It also gave an MIC (P. aeruginosa ATCC 27853) of 2 to 4 µg/mL (≈ 2.59 to 5.19 µM), an MIC (A. baumannii CDC-0045) of under 1 µg/mL and an MIC [3] of under 1 µg/mL. For the same compound, the MIC [4] was 2 to 4 µg/mL (≈ 2.59 to 5.19 µM), the MIC (P. aeruginosa CDC-0054) was under 1 µg/mL and the MIC (P. aeruginosa CDC-0095) was under 1 µg/mL. It also gave an MIC (A. baumannii ATCC 17978) of under 1 µg/mL, an MIC (P. aeruginosa CDC-0110) of under 1 µg/mL and an MIC (A. baumannii 1258916) of 2 to 4 µg/mL (≈ 2.59 to 5.19 µM). It also gave an MIC [5] of under 1 µg/mL, an MIC (A. baumannii ATCC 19606) of under 1 µg/mL and an IC50 [2] of 10 to 50 µM. It also gave an MIC (A. baumannii CDC-0033) of 32 to 64 µg/mL (≈ 41.5 to 83 µM) and an MIC (A. baumannii CDC-0036) of over 128 µg/mL.
`C[C@H]1[C@H](NC(=O)/C(=N\OC(C)(C)C(=O)O)c2csc(N)n2)C(=O)N1S(=O)(=O)O` [aztreonam, reference compound] gave an EC50 ([2]; beta-lactam validation of FP competition assay, 15 minutes preincubation) of under 0.5 µM.
`O=C(O)c1c(F)ccc2c1OB(O)[C@@H](NC(=O)C(NC(=O)N1CCN(C3CCN(C(=O)c4ccc5[nH]nnc5c4)CC3)C1=O)c1cc(F)c(O)c(O)c1Cl)C2` (stereo partly drawn) [Example 469, (3R)-3-(2-(3-(1-(1H-benzo[d][1,2,3]triazole-5-carbonyl)piperidin-4-yl)-2-oxoimidazolidine-1-carboxamido)-2-(2-chloro-5-fluoro-3,4-dihydroxyphenyl)acetamido)-7-fluoro-2-hydroxy-3,4-dihydro-2H-benzo[e][1,2]oxaborinine-8-carboxylic acid] was tested, and the IC50 [1] was under 10 µM.
Work on `O=C(O)c1c(F)ccc2c1OB(O)[C@@H](NC(=O)[C@@H](NC(=O)N1CCN(Cc3ccc(O)c(O)c3Cl)C(=O)C1=O)c1cccc(P(=O)(O)O)c1)C2` (single isomer, unassigned) [Example 162] yielded an MIC (P. aeruginosa ATCC 35151) of under 1 µg/mL, an MIC (P. aeruginosa CDC-0090) of 2 to 4 µg/mL (≈ 2.72 to 5.44 µM) and an IC50 [1] of under 10 µM. It also gave an MIC (P. aeruginosa ATCC 27853) of 2 to 4 µg/mL (≈ 2.72 to 5.44 µM), an MIC (A. baumannii CDC-0045) of over 128 µg/mL and an MIC [3] of 8 to 16 µg/mL (≈ 10.9 to 21.8 µM). For the same compound, the MIC [4] was 2 to 4 µg/mL (≈ 2.72 to 5.44 µM), the MIC (P. aeruginosa CDC-0054) was 2 to 4 µg/mL (≈ 2.72 to 5.44 µM) and the MIC (P. aeruginosa CDC-0095) was 8 to 16 µg/mL (≈ 10.9 to 21.8 µM). For the same compound, the MIC (A. baumannii ATCC 17978) was under 1 µg/mL, the MIC (P. aeruginosa CDC-0110) was 2 to 4 µg/mL (≈ 2.72 to 5.44 µM) and the MIC (A. baumannii 1258916) was 32 to 64 µg/mL (≈ 43.6 to 87.1 µM). For the same compound, the MIC [5] was under 1 µg/mL, the MIC (A. baumannii ATCC 19606) was under 1 µg/mL and the IC50 [2] was 10 to 50 µM. For the same compound, the MIC (A. baumannii CDC-0033) was over 128 µg/mL and the MIC (A. baumannii CDC-0036) was over 128 µg/mL.
Work on `O=C(O)c1c(F)ccc2c1OB(O)[C@@H](NC(=O)C(NC(=O)N1CCN(C3CCN(C(=O)c4cncc(O)c4)CC3)C1=O)c1cc(F)c(O)c(O)c1Cl)C2` (stereo partly drawn) [Example 464, (3R)-3-(2-(2-chloro-5-fluoro-3,4-dihydroxyphenyl)-2-(3-(1-(5-hydroxynicotinoyl)piperidin-4-yl)-2-oxoimidazolidine-1-carboxamido)acetamido)-7-fluoro-2-hydroxy-3,4-dihydro-2H-benzo[e][1,2]oxaborinine-8-carboxylic acid] yielded an IC50 [1] of under 10 µM and an IC50 [2] of under 10 µM.
